Consider 32 compounds from US8735406B2, “8-oxodihydropurine derivative” (Dainippon Sumitomo Pharma Co., Ltd., priority 2009, dated 2014).

In the experiment the target is T1, FAAH (Rattus norvegicus, UniProt P97612).
T1 construct: Preparation of Rat Brain Membranes Preparations (FAAH Enzyme Solution); from tissue; host or cells: rat cerebrum (brain membrane preparation)
T1 sequence (P97612 1-579): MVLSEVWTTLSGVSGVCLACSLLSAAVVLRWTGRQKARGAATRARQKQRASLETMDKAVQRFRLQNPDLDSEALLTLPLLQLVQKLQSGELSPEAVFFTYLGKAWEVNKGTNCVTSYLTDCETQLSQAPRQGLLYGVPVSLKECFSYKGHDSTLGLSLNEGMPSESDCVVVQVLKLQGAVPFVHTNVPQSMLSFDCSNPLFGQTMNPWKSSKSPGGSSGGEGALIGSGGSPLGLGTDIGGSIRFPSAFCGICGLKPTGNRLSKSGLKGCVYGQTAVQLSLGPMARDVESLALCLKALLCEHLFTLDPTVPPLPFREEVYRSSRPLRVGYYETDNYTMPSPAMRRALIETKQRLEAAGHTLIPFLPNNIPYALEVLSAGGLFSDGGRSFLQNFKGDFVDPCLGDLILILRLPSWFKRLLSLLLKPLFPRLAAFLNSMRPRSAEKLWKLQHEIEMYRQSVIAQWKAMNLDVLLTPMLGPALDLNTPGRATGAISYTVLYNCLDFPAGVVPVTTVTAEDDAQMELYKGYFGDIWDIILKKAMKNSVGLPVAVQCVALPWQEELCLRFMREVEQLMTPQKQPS
Description: Determination of FAAH inhibitory activity in rat (rat brain membrane preparations, [3H]-anandamide hydrolysis). In kind it is biochemical. The conditions noted are these: rat brain membrane preparations; for inhibition at 0.1 µM: 100 nM test substance, read-out: FAAH Inhibition, Inhibition Rate at 100 nM; for IC50: test substance 0.1 nM to 1 μM, read-out: FAAH Inhibition IC50. The method, boiled down:
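Compounds tested from 0.1 nM to 1 μM to derive IC50 against FAAH hydrolysis in rat brain membrane preparations (100 μg/mL). A 10-min 37 °C preincubation was followed by 10 min with [3H]-anandamide (2 nM) mixed with 2 μM unlabelled anandamide. Radioactive ethanolamine was extracted into the water/methanol layer and counted.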

In general, inhibition refers to the relative decrease from the control value, in per cent. Usually IC50 stands for the concentration at which inhibition is half-maximal.

A value given as a limit tells only on which side of the number the result lay.

For the compound `O=C(N1CCCC1)n1c(=O)n(CCO)c2nc(-c3ccccc3)ncc21` [Example 302, 9-(2-hydroxyethyl)-2-phenyl-7-(pyrrolidin-1-ylcarbonyl)-7,9-dihydro-8H-purine-8-one], the inhibition at 0.1 µM came to 94% and the IC50 is 46 nM.

Consider `CCn1c(=O)n(C(=O)N2CCCC2)c2cnc(-c3ccccc3)nc21` [Example 303], for which the inhibition at 0.1 µM amounted to 101% and the IC50 amounted to 7 nM.

With `CCCn1c(=O)n(C(=O)N2CCCC2)c2cnc(-c3ccccc3)nc21` [Example 304, 2-Phenyl-9-propyl-7-(pyrrolidin-1-ylcarbonyl)-7,9-dihydro-8H-purine-8-one], the inhibition at 0.1 µM came out at 100% and the IC50 was determined as 9 nM.

As for `CC(C)n1c(=O)n(C(=O)N2CCCC2)c2cnc(-c3ccccc3)nc21` [Example 305], the inhibition at 0.1 µM was 99% and the half-inhibitory concentration (IC50) worked out at 12 nM.

For `CCCCn1c(=O)n(C(=O)N2CCCC2)c2cnc(-c3ccccc3)nc21` [Example 306, 9-Butyl-2-phenyl-7-(pyrrolidin-1-ylcarbonyl)-7,9-dihydro-8H-purine-8-one], the inhibition at 0.1 µM amounted to 99% and the IC50 was 15 nM.

Regarding `CC(C)Cn1c(=O)n(C(=O)N2CCCC2)c2cnc(-c3ccccc3)nc21` [Example 307], the inhibition at 0.1 µM was determined as 96% and the IC50 came to 41 nM.

Regarding `O=C(N1CCCC1)n1c(=O)n(Cc2ccccc2)c2nc(-c3ccccc3)ncc21` [Example 308], the inhibition at 0.1 µM worked out at 66% and the IC50 turned out to be 74 nM.

In the case of `O=C(N1CCCC1)n1c(=O)n(CCN2CCCC2)c2nc(-c3ccccc3)ncc21` [Example 310], the inhibition at 0.1 µM turned out to be 5% and the IC50 was above 100 nM.

In the case of `Cn1c(=O)n(C(=O)N2CCCC2)c2cnc(-c3cccc(O)c3)nc21` [Example 311, 2-(3-hydroxyphenyl)-9-methyl-7-(pyrrolidin-1-ylcarbonyl)-7,9-dihydro-8H-purine-8-one], the inhibition at 0.1 µM was found to be 88% and the 50% inhibitory concentration (IC50) came out at 53 nM.

For the compound `Cn1c(=O)n(C(=O)N2CCCC2)c2nc(CCc3ccc(C(F)(F)F)cc3)ncc21` [Example 312, 7-methyl-9-(pyrrolidin-1-ylcarbonyl)-2-{2-[4-(trifluoromethyl)phenyl]ethyl}-7,9-dihydro-8H-purine-8-one], the inhibition at 0.1 µM worked out at 99% and the 50% inhibitory concentration (IC50) turned out to be 8 nM.

Regarding `Cn1c(=O)n(C(=O)N2CCCC2)c2nc(CCc3cccc(C(F)(F)F)c3)ncc21` [Example 313, 7-Methyl-9-(pyrrolidin-1-ylcarbonyl)-2-{2-[3-(trifluoromethyl)phenyl]ethyl}-7,9-dihydro-8H-purine-8-one], the inhibition at 0.1 µM was 103% and the IC50 was 11 nM.

As for `Cn1c(=O)n(C(=O)N2CCCC2)c2nc(CCc3ccc(F)cc3)ncc21` [Example 314, 2-[2-(4-Fluorophenyl)ethyl]-7-methyl-9-(pyrrolidin-1-ylcarbonyl)-7,9-dihydro-8H-purine-8-one], the inhibition at 0.1 µM came out at 100% and the IC50 came to 37 nM.

On to `Cn1c(=O)n(C(=O)N2CCCC2)c2nc(CCc3cccc(F)c3)ncc21` [Example 315, 2-[2-(3-Fluorophenyl)ethyl]-7-methyl-9-(pyrrolidin-1-ylcarbonyl)-7,9-dihydro-8H-purine-8-one], for which the inhibition at 0.1 µM worked out at 95% and the IC50 is 19 nM.

On to `Cn1c(=O)n(C(=O)N2CCCC2)c2cnc(C3CCCCC3)nc21` [Example 316, 2-cyclohexy-9-methyl-7-(pyrrolidin-1-ylcarbonyl)-7,9-dihydro-8H-purine-8-one], for which the inhibition at 0.1 µM is 80% and the IC50 was 55 nM.

Regarding `Cn1c(=O)n(C(=O)N2CCCC2)c2cnc(-c3cccc(N)c3)nc21` [Example 317, 2-(3-aminophenyl)-9-methyl-7-(pyrrolidin-1-ylcarbonyl)-7,9-dihydro-8H-purine-8-one], the inhibition at 0.1 µM worked out at 103% and the IC50 was below 10 nM.

In the case of `COc1cccc(-c2ncc3c(n2)n(C(=O)N(C)C)c(=O)n3C)c1` [Example 322, 2-(3-Methoxyphenyl)-N,N,7-trimethyl-8-oxo-7,8-dihydro-9H-purine-9-carboxamide], the inhibition at 0.1 µM is 45%.

With `CN(C)C(=O)n1c(=O)n(C)c2cnc(-c3ccc(C(F)(F)F)cc3)nc21` [Example 326, N,N,7-Trimethyl-8-oxo-2-[4-(trifluoromethyl)phenyl]-7,8-dihydro-9H-purine-9-carboxamide], the inhibition at 0.1 µM was found to be 83% and the concentration for half-maximal inhibition (IC50) amounted to 52 nM.

For `CN(C)C(=O)n1c(=O)n(C)c2cnc(-c3ccc(C(F)F)cc3)nc21` [Example 330, 2-[4-(Difluoromethyl)phenyl]-N,N,7-trimethyl-8-oxo-7,8-dihydro-9H-purine-9-carboxamide], the inhibition at 0.1 µM worked out at 62% and the IC50 came to 95 nM.

Turning to `CN(C)C(=O)n1c(=O)n(C)c2cnc(-c3cccc(OC(F)F)c3)nc21` [Example 331, 2-[3-(Difluoromethoxy)phenyl]-N,N,7-trimethyl-8-oxo-7,8-dihydro-9H-purine-9-carboxamide], the inhibition at 0.1 µM is 77% and the IC50 worked out at 33 nM.

For the compound `CN(C)C(=O)n1c(=O)n(C)c2cnc(-c3cccc(C(F)F)c3)nc21` [Example 332, 2-[3-(Difluoromethyl)phenyl]-N,N,7-trimethyl-8-oxo-7,8-dihydro-9H-purine-9-carboxamide], the inhibition at 0.1 µM was 78% and the IC50 worked out at 38 nM.

For the compound `CN(C)C(=O)n1c(=O)n(C)c2cnc(-c3ccc(OCC(F)(F)F)cc3)nc21` [Example 334, N,N,7-Trimethyl-8-oxo-2-[4-(2,2,2-trifluoroethoxy)phenyl]-7,8-dihydro-9H-purine-9-carboxamide], the inhibition at 0.1 µM was 88% and the concentration for half-maximal inhibition (IC50) stood at 25 nM.

With `CN(C)C(=O)n1c(=O)n(C)c2cnc(-c3cccc(OCC(F)F)c3)nc21` [Example 335, 2-[3-(2,2-Difluoroethoxy)phenyl]-N,N,7-trimethyl-8-oxo-7,8-dihydro-9H-purine-9-carboxamide], the inhibition at 0.1 µM stood at 74% and the IC50 came out at 33 nM.

As to `CN(C)C(=O)n1c(=O)n(C)c2cnc(-c3cccc(OCC(F)(F)F)c3)nc21` [Example 336], the inhibition at 0.1 µM is 85% and the IC50 amounted to 20 nM.

Turning to `CN(C)C(=O)n1c(=O)n(C)c2cnc(-c3ccc(OC(F)F)cc3)nc21` [Example 337, 2-[4-(Difluoromethoxy)phenyl]-N,N,7-trimethyl-8-oxo-7,8-dihydro-9H-purine-9-carboxamide], the inhibition at 0.1 µM came out at 82% and the IC50 stood at 46 nM.

In the case of `CN(C)C(=O)n1c(=O)n(C)c2cnc(-c3ccc(C(F)(F)F)cc3F)nc21` [Example 338, 2-[2-Fluoro-4-(trifluoromethyl)phenyl]-N,N,7-trimethyl-8-oxo-7,8-dihydro-9H-purine-9-carboxamide], the inhibition at 0.1 µM is 83% and the IC50 turned out to be 21 nM.

On to `CN(C)C(=O)n1c(=O)n(C)c2cnc(-c3ccc(C(F)(F)F)cc3Cl)nc21` [Example 339, 2-[2-Chloro-4-(trifluoromethyl)phenyl]-N,N,7-trimethyl-8-oxo-7,8-dihydro-9H-purine-9-carboxamide], for which the inhibition at 0.1 µM stood at 80% and the IC50 was 7 nM.

Consider `COc1ccc(-c2ncc3c(n2)n(C(=O)N2CCC2)c(=O)n3C)cc1` [Example 356, 9-(Azetidin-1-ylcarbonyl)-2-(4-methoxyphenyl)-7-methyl-7,9-dihydro-8H-purine-8-one], for which the inhibition at 0.1 µM amounted to 72% and the half-inhibitory concentration (IC50) is 95 nM.

`COc1cccc(Cc2ncc3c(n2)n(C)c(=O)n3C(=O)N2CCC2)c1` [Example 375, 7-(Azetidin-1-ylcarbonyl)-2-(3-methoxybenzyl)-9-methyl-7,9-dihydro-8H-purine-8-one]: the inhibition at 0.1 µM worked out at 94% and the IC50 was 24 nM.

In the case of `Cn1c(=O)n(C(=O)N2CCC2)c2cnc(Cc3cccc(C(F)(F)F)c3)nc21` [Example 379, 7-(Azetidin-1-ylcarbonyl)-9-methyl-2-[3-(trifluoromethyl)benzyl]-7,9-dihydro-8H-purine-8-one], the inhibition at 0.1 µM was found to be 96% and the 50% inhibitory concentration (IC50) stood at 13 nM.

Regarding `COCCCc1ncc2c(n1)n(C)c(=O)n2C(=O)N1CC(c2ccc(C(F)(F)F)cc2)C1` [Example 380, 2-(3-methoxypropyl)-9-methyl-7-({3-[4-(trifluoromethyl)phenyl]azetidin-1-yl}carbonyl)-7,9-dihydro-8H-purine-8-one], the inhibition at 0.1 µM came out at 100% and the IC50 was 8 nM.

`COCCCc1ncc2c(n1)n(C)c(=O)n2C(=O)N1CC(c2ccc(F)cc2)C1` [Example 381]: the inhibition at 0.1 µM was found to be 84% and the 50% inhibitory concentration (IC50) was determined as 8 nM.

`COCCCc1ncc2c(n1)n(C)c(=O)n2C(=O)N1CC(c2cccc(F)c2)C1` [Example 382]: the inhibition at 0.1 µM was found to be 80% and the IC50 was 5 nM.
